# Measured values taken from patent publication US20240018123A1, “COMPOUND FOR INHIBITING OR DISINTEGRATING ANDROGEN RECEPTOR, AND PHARMACEUTICAL USE THEREOF” (KOREA RESEARCH INSTITUTE OF CHEMICAL TECHNOLOGY, priority 2020, published 2024).
# Read-outs that look alike come from different tables or passages of the source.
# Experiments:
# Androgen receptor (AR) = biological target: T1, Androgen receptor (AR) (Homo sapiens, UniProt P10275, T878A); test: Assessment of AR proteolytic activity (Western blotting of LNCap cell lysates); assay type: cell-based; conditions: 24 hours of treatment, Western blotting quantified with Image J
# T1 construct: 5.5×10^5 LNCap cells were injected into each well of a 6-well plate; endogenous in cells; host or cells: LNCaP
# T1 sequence (P10275 1-920 T878A): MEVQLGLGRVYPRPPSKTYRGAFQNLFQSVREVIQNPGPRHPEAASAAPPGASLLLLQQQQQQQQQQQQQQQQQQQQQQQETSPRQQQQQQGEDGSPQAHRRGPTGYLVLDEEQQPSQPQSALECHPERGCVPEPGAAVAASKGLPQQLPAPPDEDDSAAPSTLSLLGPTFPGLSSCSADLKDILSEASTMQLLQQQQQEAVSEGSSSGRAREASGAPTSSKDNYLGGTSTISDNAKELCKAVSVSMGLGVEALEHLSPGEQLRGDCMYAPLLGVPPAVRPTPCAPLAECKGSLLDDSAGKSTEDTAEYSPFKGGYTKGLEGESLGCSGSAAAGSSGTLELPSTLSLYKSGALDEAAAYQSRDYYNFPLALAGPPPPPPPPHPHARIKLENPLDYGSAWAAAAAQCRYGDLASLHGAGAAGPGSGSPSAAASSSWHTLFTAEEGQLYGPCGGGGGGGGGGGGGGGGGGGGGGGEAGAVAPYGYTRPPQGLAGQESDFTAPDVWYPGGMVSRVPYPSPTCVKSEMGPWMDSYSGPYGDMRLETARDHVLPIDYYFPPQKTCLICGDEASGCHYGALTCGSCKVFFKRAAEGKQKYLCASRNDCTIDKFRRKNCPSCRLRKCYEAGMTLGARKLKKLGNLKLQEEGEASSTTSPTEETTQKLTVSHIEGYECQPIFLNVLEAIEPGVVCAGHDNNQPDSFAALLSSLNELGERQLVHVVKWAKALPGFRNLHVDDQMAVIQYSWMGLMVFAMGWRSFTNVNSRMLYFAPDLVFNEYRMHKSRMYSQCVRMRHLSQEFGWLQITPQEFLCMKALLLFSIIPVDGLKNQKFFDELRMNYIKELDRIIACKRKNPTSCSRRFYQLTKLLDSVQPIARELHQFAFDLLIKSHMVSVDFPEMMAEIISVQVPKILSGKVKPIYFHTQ
# In short: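 AR degradation read by Western blot densitometry on RIPA lysates (pH 7.5, protease inhibitor cocktail). Lysates came from LNCap cells, 5.5×10^5 per well, exposed to compound for 24 hours.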
# 22RV1 cells = test: Cytotoxicity assessment (Cell-titer-glo cell viability), 22RV1; assay type: cell-based
# Description: (§1) In order to evaluate the androgen receptor (AR) cytotoxicity of the compounds according to the present invention, the following experiment was conducted. Specifically, 1.5×10^3 (LNCaP) or 4×10^3 (VCaP, 22RV1), respectively, of LNCaP, VCaP, and 22RV1 cells were injected into each well of a 96-well plate. The next day, each well was treated with the compound at a final concentration of 3 nM, 10 nM, 30 nM, 100 nM, 300 nM, 1 μM, 3 μM, and 10 μM. […] After 6 days of treatment, Cell-titer-glo (promega) was treated and reacted for 10 minutes, and cell viability was measured with a multimode plate reader (PerkinElmer, Inc.), and the change was quantified compared to when DMSO was treated.
# LNCaP cells [1] = system: LNCaP cells
# Description: as §1
# LNCaP cells [2] = test: Cytotoxicity assessment (Cell-titer-glo cell viability), LNCaP; conditions: read-out: LNCAP (CC50); LNCaP cells, 6 days of treatment, Cell-titer-glo, vs DMSO
# Description: as §1
"Degradation (1 μM treated in LNCaP, % AR remaining) (Androgen receptor (AR))",SMILES,CC50 (22RV1 cells),CC50 (LNCaP cells [1]),CC50 (VCaP cells),"CC50 (22RV1 cells; 22RV1 cells, 6 days of treatment, Cell-titer-glo, vs DMSO, read-out: 22RV1 (CC50))",CC50 (LNCaP cells [2])
47%,"CC1(C)[C@H](NC(=O)c2ccc(OCCOCCOCCOCCOCCOCCCNc3cccc4nnn(C5CCC(=O)NC5=O)c(=O)c34)cc2)C(C)(C)[C@H]1Oc1ccc(C#N)c(Cl)c1 (single isomer, unassigned) [Example 3, N-((1r,3r)-3-(3-chloro-4-cyanophenoxy)-2,2,4,4-tetramethylcyclobutyl)-4-((18-((3-(2,6-dioxopiperidin-3-yl)-4-oxo-3,4-dihydrobenzo[d][1,2,3]triazin-5-yl)amino)-3,6,9,12,15-pentaoxaoctadecyl)oxy)benzamide]",430 nM,2980 nM,,,
58%,"CC1(C)[C@H](NC(=O)c2ccc(OCCOCCOCCOCCOCCOCCCNc3cccc4nnn(C5CCC(=O)NC5=O)c(=O)c34)cc2)C(C)(C)[C@H]1Oc1ccc(C#N)c(Cl)c1 (single isomer, unassigned) [Example 4, N-((1r,3r)-3-(3-chloro-4-cyanophenoxy)-2,2,4,4-tetramethylcyclobutyl)-4-((18-((3-(2,6-dioxopiperidin-3-yl)-4-oxo-3,4-dihydrobenzo[d][1,2,3]triazin-5-yl)amino)-3,6,9,12,15-pentaoxaoctadecyl)oxy)benzamide]",4460 nM,5320 nM,,,
14%,"CC1(C)[C@H](NC(=O)c2ccc(N3CCN(CCC4CCN(C(=O)C5CN(c6ccc7nnn(C8CCC(=O)NC8=O)c(=O)c7c6)C5)CC4)CC3)cc2)C(C)(C)[C@H]1Oc1ccc(C#N)c(Cl)c1 (stereo partly drawn) [Example 27, N-((1r,3r)-3-(3-chloro-4-cyanophenoxy)-2,2,4,4-tetramethylcyclobutyl)-4-(4-(2-(1-(1-(3-(2,6-dioxopiperidin-3-yl)-4-oxo-3,4-dihydrobenzo[d][1,2,3]triazin-6-yl)azetidine-3-carbonyl)piperidin-4-yl)ethyl)piperazin-1-yl)benzamide]",,552 nM,37.1 nM,,
18%,"CC1(C)[C@H](NC(=O)c2ccc(C#CC3CCN(C(=O)CNc4ccc5nnn(C6CCC(=O)NC6=O)c(=O)c5c4)CC3)cc2)C(C)(C)[C@H]1Oc1ccc(C#N)c(Cl)c1 (stereo partly drawn) [Example 143, N-((1r,3r)-3-(3-chloro-4-cyanophenoxy)-2,2,4,4-tetramethylcyclobutyl)-4-((1-((3-(2,6-dioxopiperidin-3-yl)-4-oxo-3,4-dihydrobenzo[d][1,2,3]triazin-6-yl)glycyl)piperidin-4-yl)ethynyl)benzamide]",,17.6 nM,6.9 nM,,
43%,"CC1(C)[C@H](NC(=O)c2ccc(-c3cnn(C4CCN(CC5CCN(C(=O)C6CN(c7ccc8nnn(C9CCC(=O)NC9=O)c(=O)c8c7)C6)CC5)CC4)c3)cc2)C(C)(C)[C@H]1Oc1ccc(C#N)c(Cl)c1 (stereo partly drawn) [Example 83, N-((1r,3r)-3-(3-chloro-4-cyanophenoxy)-2,2,4,4-tetramethylcyclobutyl)-4-(1-(1-((1-(1-(3-(2,6-dioxopiperidin-3-yl)-4-oxo-3,4-dihydrobenzo[d][1,2,3]triazin-6-yl)azetidine-3-carbonyl)piperidin-4-yl)methyl)piperidin-4-yl)-1H-pyrazol-4-yl)benzamide]",,13.7 nM,6 nM,,

SMILES,"Degradation (1 μM treated in LNCaP, % AR remaining) (Androgen receptor (AR))",CC50 (22RV1 cells),CC50 (LNCaP cells [1]),CC50 (VCaP cells),"CC50 (22RV1 cells; 22RV1 cells, 6 days of treatment, Cell-titer-glo, vs DMSO, read-out: 22RV1 (CC50))",CC50 (LNCaP cells [2])
"CC1(C)C(NC(=O)c2ccc(OCCOCCOCCOCCOCCOCCOCCCCNc3cccc4nnn(C5CCC(=O)NC5=O)c(=O)c34)cc2)C(C)(C)C1Oc1ccc(C#N)c(Cl)c1 (stereo not drawn) [Example 6, N-((1r,3r)-3-(3-chloro-4-cyanophenoxy)-2,2,4,4-tetramethylcyclobutyl)-4-((22-((3-(2,6-dioxopiperidin-3-yl)-4-oxo-3,4-dihydrobenzo[d][1,2,3]triazin-5-yl)amino)-3,6,9,12,15,18-hexaoxadocosyl)oxy)benzamide]",66%,,,,7100 nM,5930 nM
